Measurements as given in patent US8178577B2, “Tricyclic derivatives as potent and selective histone deacetylase inhibitors” (Shenzhen Chipscreen Biosciences Ltd., priority 2008, dated 2012).

Columns and labels:
HDAC4/5 = assay: MEF2 reporter gene assay in HeLa cells; assay type: cell-based; conditions: relative to SAHA, 24 hours
Experimental: (§1) HDAC subtype selectivity inhibition assay of tested compounds was carried out by several reporter gene assays experiments. Briefly, HeLa cells were seeded in 96-well plates the day before transfection to give a confluence of 50-80%. Cells were transfected with one of reporter gene plasmids containing a promoter sequences or response elements upstream of a luciferase gene construct using FuGene6 transfection reagent according to the manufacturer's instructions (Roche). The promoter or response elements including p21-promoter, gdf11-promoter, serum response element (SRE), MEF-binding element were fused upstream to the luciferase gene reporter construct. For normalizing the transfection efficiency, a GFP expression plasmid was cotransfected. Cells were allowed to express protein for 24 hours followed by addition of individual compounds or the vehicle (DMSO). 24 hours later the cells were harvested, and the luciferase assays were performed using the luciferase assay kit according to the manufacturer's instructions (Promega). To normalize the data from the luciferase assays, β-galactosidase activity from transfected cells was measured using a kit (Promega) as instructed by the manufacturer.

HDAC Class I = assay: P21 reporter gene assay in HeLa cells; assay type: cell-based; conditions: relative to SAHA, 24 hours
Experimental: as §1

total HDAC enzyme = assay: In vitro inhibition of total HDAC enzyme activity (BIOMOL HDAC Fluorimetric Assay/Drug Discovery Kit, HeLa extract); assay type: biochemical
Experimental: Measurement of In Vitro Inhibition of Total HDAC Enzyme Activity:
The in vitro inhibition of total HDAC enzyme was determined by HDAC Fluorimetric Assay/Drug Discovery Kit (BIOMOL) according to manufacture's instruction. • 1. Add Assay buffer, diluted trichostatin A or test inhibitor to appropriate wells of the microtiter plate. Following table lists examples of various assay types and the additions required for each test.
• 2. Add diluted HeLa extract or other HDAC sample to all wells except those that are to be “No Enzyme Controls” (Blank). • 3. Allow diluted Fluor de LYS™ Substrate and the samples in the microtiter plate to equilibrate to assay temperature (25° C.). • 4. Initiate HDAC reactions by adding diluted substrate (25 μl) to each well and mixing thoroughly. • 5. Allow HDAC reactions to proceed for desired length of time and then stop them by addition of Fluor de Lys™ Developer (50 μl). Incubate plate at room temperature (25° C.) for 10-15 min. • 6. Read samples in a microtiter-plate reading fluorimeter capable of excitation at a wavelength in the range 350-380 nm and detection of emitted light in the range 440-460 nm. Measurement of In Vivo Inhibition of HDAC Subtype Activity: […]

HDAC3 = molecular target: T1, HDAC3 (Homo sapiens, UniProt O15379); assay: gdf11 reporter gene assay in HeLa cells; assay type: cell-based; conditions: for activation at 10 µM: HeLa, 24 h, read-out: % of SAHA Response for HDAC3 at 10 μM (gdf11 reporter gene)
T1 construct: endogenous in cells; host or cells: HeLa
T1 sequence (O15379 whole entry): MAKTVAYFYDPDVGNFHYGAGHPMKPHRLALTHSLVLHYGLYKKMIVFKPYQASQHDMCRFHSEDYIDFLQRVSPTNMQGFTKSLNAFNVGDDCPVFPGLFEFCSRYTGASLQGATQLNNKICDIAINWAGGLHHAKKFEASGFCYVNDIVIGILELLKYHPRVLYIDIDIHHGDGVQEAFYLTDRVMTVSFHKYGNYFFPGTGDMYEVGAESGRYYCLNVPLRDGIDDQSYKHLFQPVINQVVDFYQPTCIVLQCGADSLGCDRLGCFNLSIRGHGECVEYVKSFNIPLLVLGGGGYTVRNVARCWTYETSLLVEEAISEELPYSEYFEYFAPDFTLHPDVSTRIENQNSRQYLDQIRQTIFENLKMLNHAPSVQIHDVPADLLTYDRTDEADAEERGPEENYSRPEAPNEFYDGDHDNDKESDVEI
T1 sequence (Q9Y618 whole entry partner): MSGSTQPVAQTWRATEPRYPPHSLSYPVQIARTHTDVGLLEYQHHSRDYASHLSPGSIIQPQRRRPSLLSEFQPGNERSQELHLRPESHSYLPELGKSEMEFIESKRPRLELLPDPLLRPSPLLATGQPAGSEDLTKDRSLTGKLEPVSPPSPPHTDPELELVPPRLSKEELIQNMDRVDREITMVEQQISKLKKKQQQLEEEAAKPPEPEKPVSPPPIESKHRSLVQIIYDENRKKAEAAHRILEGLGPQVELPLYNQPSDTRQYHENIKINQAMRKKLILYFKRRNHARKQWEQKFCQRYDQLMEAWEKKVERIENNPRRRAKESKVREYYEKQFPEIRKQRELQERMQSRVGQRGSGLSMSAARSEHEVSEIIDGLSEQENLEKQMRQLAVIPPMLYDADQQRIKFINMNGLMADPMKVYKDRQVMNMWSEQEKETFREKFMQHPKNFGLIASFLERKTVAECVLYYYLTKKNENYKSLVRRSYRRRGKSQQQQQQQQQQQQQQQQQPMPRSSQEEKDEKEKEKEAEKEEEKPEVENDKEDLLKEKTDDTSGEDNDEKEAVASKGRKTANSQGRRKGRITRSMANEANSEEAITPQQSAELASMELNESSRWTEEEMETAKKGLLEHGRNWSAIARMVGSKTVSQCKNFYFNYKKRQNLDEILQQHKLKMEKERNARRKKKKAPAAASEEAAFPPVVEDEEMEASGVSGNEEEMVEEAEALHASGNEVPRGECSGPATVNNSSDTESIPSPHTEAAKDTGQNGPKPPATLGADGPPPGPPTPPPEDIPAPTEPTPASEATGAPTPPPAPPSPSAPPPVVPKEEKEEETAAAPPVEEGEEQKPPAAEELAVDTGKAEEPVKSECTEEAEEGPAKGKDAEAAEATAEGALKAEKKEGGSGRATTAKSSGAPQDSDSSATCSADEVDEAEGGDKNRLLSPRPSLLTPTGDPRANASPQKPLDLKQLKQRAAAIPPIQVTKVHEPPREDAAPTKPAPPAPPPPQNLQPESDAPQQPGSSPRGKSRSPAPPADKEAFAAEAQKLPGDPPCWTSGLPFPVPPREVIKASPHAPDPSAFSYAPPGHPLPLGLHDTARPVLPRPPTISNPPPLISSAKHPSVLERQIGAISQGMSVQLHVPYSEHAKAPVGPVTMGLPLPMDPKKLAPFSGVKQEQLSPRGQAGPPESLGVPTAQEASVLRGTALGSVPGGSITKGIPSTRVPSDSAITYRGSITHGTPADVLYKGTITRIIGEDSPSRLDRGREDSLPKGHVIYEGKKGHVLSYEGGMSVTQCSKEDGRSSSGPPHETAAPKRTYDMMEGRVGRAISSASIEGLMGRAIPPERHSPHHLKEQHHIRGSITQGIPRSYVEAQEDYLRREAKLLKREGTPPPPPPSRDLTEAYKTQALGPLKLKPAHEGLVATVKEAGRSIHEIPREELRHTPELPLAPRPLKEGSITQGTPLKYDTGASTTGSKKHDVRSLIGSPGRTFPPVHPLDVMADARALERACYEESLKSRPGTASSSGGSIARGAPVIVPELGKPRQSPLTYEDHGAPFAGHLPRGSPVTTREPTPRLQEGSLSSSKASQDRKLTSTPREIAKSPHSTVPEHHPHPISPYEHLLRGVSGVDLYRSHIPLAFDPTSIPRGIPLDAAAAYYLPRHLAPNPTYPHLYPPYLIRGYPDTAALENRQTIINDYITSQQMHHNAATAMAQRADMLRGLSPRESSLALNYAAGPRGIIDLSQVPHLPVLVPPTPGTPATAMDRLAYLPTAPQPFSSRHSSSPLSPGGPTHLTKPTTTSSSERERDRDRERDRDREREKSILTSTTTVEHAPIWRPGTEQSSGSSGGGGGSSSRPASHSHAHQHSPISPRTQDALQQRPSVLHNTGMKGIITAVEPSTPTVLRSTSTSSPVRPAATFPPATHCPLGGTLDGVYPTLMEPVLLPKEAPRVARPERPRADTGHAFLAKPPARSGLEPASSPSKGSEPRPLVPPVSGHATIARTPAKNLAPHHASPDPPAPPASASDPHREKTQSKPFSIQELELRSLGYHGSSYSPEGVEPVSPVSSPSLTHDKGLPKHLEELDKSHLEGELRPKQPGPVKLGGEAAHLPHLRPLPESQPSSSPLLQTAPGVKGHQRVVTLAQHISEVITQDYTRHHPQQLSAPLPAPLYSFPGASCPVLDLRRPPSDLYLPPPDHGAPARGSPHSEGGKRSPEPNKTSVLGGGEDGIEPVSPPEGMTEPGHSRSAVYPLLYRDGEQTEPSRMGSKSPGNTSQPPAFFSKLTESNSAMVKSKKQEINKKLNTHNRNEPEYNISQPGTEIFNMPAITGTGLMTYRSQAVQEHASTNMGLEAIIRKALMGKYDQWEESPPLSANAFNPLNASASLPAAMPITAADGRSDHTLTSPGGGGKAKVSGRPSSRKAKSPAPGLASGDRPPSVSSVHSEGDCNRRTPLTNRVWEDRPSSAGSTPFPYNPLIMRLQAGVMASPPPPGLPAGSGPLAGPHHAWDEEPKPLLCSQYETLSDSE
Experimental: as §1

HDAC7 = molecular target: T2, HDAC7 (Homo sapiens, UniProt Q8WUI4); assay: Nur77 reporter gene assay in HeLa cells; assay type: cell-based; conditions: for activation at 10 µM: HeLa, 24 h, read-out: % of SAHA Response for HDAC7 at 10 μM (Nur77 reporter gene)
T2 construct: endogenous in cells; host or cells: HeLa
T2 sequence (Q8WUI4 1-952): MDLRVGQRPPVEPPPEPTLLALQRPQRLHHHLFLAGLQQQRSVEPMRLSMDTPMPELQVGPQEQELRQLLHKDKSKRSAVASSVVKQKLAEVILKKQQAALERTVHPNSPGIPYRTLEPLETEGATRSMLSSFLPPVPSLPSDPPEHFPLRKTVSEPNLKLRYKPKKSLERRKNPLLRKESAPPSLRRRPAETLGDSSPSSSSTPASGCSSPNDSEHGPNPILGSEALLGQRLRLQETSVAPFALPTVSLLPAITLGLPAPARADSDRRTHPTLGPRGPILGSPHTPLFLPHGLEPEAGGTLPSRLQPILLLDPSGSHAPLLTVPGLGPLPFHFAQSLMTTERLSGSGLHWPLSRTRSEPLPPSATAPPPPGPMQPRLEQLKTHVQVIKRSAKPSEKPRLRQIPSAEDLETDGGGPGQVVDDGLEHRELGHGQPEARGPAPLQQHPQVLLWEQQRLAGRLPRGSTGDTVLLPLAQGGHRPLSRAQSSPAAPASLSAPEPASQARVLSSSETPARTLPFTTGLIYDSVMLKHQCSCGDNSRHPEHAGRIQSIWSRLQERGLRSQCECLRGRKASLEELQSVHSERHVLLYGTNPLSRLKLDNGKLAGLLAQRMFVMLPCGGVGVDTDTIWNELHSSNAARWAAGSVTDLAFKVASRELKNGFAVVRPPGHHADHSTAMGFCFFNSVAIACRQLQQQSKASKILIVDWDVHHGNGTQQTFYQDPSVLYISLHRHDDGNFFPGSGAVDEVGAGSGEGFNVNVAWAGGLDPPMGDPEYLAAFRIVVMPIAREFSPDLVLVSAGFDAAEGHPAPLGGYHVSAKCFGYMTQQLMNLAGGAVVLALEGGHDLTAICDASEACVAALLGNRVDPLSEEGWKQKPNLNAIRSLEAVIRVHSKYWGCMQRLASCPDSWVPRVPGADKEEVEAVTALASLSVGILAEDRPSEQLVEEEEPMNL
Experimental: as §1

Hut-78 = assay: Cell proliferation (MTS), Hut-78; assay type: cell-based; conditions: Homo sapiens, HuT78, 72 hours
Experimental: (§2) Measurement of In Vivo Cell Proliferation:
(§3) Tumor cells were trypsinized and plated into 96-well plates at 3,000 per well and incubated in complete medium with 10% FBS for 24 hours. Compounds were added over a final concentration range of 100 μmol/L to 100 nmol/L in 0.1% DMSO and incubated for 72 hours in complete medium. The effects on proliferation were determined by addition of MTS reagent (Promega) according to the instruction, incubation for 2 hours at 37° C. in CO2 incubator, and record the absorbance at 490 nm using an ELISA plate reader.

A549 = assay: Cell proliferation (MTS), A549; assay type: cell-based; conditions: Homo sapiens, 72 hours
Experimental: as §2, §3

HeLa = assay: Cell proliferation (MTS), HeLa; assay type: cell-based; conditions: Homo sapiens, 72 hours
Experimental: as §2, §3

HL60 = assay: Cell proliferation (MTS), HL60; assay type: cell-based; conditions: Homo sapiens, HL-60, 72 hours
Experimental: as §2, §3

SMILES	% of Inhibition on total HDAC enzyme at 30 μM (total HDAC enzyme)	activation at 10 µM (HDAC3)	activation at 10 µM (HDAC7)	% of SAHA Response for HDAC4/5 at 10 μM (MEF2 reporter gene) (HDAC4/5)	% of SAHA Response for HDAC Class I at 10 μM (P21 reporter gene) (HDAC Class I)	GI50 (Hut-78)	GI50 (A549)	GI50 (HeLa)	GI50 (HL60)	% of SAHA Response for HDAC3 at 10 μM (gdf11 reporter gene) (HDAC3; 10 μM, relative to SAHA, HeLa cells, 24 hours)	% of SAHA Response for HDAC7 at 10 μM (Nur77 reporter gene) (HDAC7)
Nc1ccccc1NC(=O)CCCCNC(=O)C=C1c2ccccc2-c2ccccc21 [Example 7, 5-(2-(9H-fluoren-9-ylidene)acetamido)-N-(2-aminophenyl)pentanamide]	42%	36%	19%	31%	49%						
Nc1cc(F)ccc1NC(=O)CCCCNC(=O)C=C1c2ccccc2-c2ccccc21 [Example 8, 5-(2-(9H-fluoren-9-ylidene)acetamido)-N-(2-amino-4-fluorophenyl)pentanamide]	31.7%	10%	7%	30%	16%						
O=C(C=C1c2ccccc2-c2ccccc21)NCCCCCC(=O)NO [Example 11, 6-(2-(9H-fluoren-9-ylidene)acetamido)-N-hydroxyhexanamide]	99%				77%	< 0.1 µM	2.34 µM	0.52 µM	< 0.1 µM		
Nc1cc(Cl)ccc1NC(=O)CCCCCNC(=O)C=C1c2ccccc2-c2ccccc21 [Example 14, 6-(2-(9H-fluoren-9-ylidene)acetamido)-N-(2-amino-4-chlorophenyl)hexanamide]		6%	4%	9%	13%						
Cc1ccc(NC(=O)CCCCCNC(=O)C=C2c3ccccc3-c3ccccc32)c(N)c1 [Example 15, 6-(2-(9H-fluoren-9-ylidene)acetamido)-N-(2-amino-4-methylphenyl)hexanamide]	42.4%	14%	4%	15%	21%						
O=C(CCCCCCC(=O)Nc1ccccc1)NO [SAHA, suberoylanilide hydroxamic acid, reference compound]				100%	100%					100%	100%
COc1ccc(NC(=O)CCCCCNC(=O)C=C2c3ccccc3-c3ccccc32)c(N)c1 [Example 16, 6-(2-(9H-fluoren-9-ylidene)acetamido)-N-(2-amino-4-methoxyphenyl)hexanamide]	29.2%	12%	10%	27%	21%						

The next lines start with results.

% of Inhibition on total HDAC enzyme at 30 μM (total HDAC enzyme)	activation at 10 µM (HDAC3)	activation at 10 µM (HDAC7)	SMILES	% of SAHA Response for HDAC4/5 at 10 μM (MEF2 reporter gene) (HDAC4/5)	% of SAHA Response for HDAC Class I at 10 μM (P21 reporter gene) (HDAC Class I)	GI50 (Hut-78)	GI50 (A549)	GI50 (HeLa)	GI50 (HL60)	% of SAHA Response for HDAC3 at 10 μM (gdf11 reporter gene) (HDAC3; 10 μM, relative to SAHA, HeLa cells, 24 hours)	% of SAHA Response for HDAC7 at 10 μM (Nur77 reporter gene) (HDAC7)
99.3%	70%	89%	O=C(C=C1c2ccccc2-c2ccccc21)NCCCCCCCC(=O)NO [Example 26, 8-(2-(9H-fluoren-9-ylidene)acetamido)-N-hydroxyoctanamide]	87%	61%						
42.3%	12%	7%	Nc1cc(F)ccc1NC(=O)CCCCCCCNC(=O)C=C1c2ccccc2-c2ccccc21 [Example 27, 8-(2-(9H-fluoren-9-ylidene)acetamido)-N-(2-amino-4-fluorophenyl)octanamide]	16%	18%						
48%	33%	20%	Nc1ccccc1NC(=O)CCCCCCCNC(=O)C=C1c2ccccc2-c2ccccc21 [Example 28, 8-(2-(9H-fluoren-9-ylidene)acetamido)-N-(2-aminophenyl)octanamide]	38%	62%						
24.1%	7%	7%	Nc1cc(C(F)(F)F)ccc1NC(=O)CCCCCNC(=O)C=C1c2ccccc2-c2ccccc21 [Example 17, 6-(2-(9H-fluoren-9-ylidene)acetamido)-N-(2-amino-4-trifluoromethylphenyl)hexanamide]	21%	12%						
